Consider six compounds from ChEMBL document CHEMBL1201862, “PubChem BioAssay data set” (2004).

Calls of active or inactive are those of the source. Bounds are passed on as bounds.

The target in experiment [1] is T1, Short transient receptor potential channel 4 (Mus musculus, UniProt Q9QUQ5).
T1 sequence (Q9QUQ5 whole entry): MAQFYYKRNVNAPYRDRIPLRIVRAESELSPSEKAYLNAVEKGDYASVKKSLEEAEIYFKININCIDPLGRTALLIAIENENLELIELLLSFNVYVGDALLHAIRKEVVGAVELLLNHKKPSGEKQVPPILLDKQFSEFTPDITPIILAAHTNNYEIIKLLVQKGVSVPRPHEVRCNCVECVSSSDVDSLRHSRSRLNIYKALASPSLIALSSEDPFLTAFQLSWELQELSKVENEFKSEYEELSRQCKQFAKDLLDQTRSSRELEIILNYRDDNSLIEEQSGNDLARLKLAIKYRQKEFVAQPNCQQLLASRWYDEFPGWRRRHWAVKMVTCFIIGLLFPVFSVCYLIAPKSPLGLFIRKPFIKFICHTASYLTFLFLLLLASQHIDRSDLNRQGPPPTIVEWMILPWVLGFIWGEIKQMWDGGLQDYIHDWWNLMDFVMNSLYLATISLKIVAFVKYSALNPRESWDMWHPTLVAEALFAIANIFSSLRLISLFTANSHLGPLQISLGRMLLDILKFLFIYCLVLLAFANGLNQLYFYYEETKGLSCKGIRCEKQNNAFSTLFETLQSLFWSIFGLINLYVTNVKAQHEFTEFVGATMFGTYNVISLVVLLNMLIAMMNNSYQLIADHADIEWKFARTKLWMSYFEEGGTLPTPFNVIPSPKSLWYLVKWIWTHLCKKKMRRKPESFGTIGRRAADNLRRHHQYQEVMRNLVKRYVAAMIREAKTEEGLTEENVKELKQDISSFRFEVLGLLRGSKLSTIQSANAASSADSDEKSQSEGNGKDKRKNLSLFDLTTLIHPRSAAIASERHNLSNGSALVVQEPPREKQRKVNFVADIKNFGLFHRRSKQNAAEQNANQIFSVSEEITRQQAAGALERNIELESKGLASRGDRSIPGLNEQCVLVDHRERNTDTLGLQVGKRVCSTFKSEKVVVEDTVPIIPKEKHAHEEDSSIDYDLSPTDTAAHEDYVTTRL
The experiment can be described thus: mouse TRPC4 channel inhibitors, dose response, cell-based, HEK293 TRPC4/mu-opioid, Fluo-4 calcium (AID 434942).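 Further: potency of inhibitors blocking the TRPC4 calcium response.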 The experiment is classed as functional.

The target of experiment [2] is T2, Microphthalmia-associated transcription factor (Homo sapiens, UniProt O75030).
T2 sequence (O75030 whole entry): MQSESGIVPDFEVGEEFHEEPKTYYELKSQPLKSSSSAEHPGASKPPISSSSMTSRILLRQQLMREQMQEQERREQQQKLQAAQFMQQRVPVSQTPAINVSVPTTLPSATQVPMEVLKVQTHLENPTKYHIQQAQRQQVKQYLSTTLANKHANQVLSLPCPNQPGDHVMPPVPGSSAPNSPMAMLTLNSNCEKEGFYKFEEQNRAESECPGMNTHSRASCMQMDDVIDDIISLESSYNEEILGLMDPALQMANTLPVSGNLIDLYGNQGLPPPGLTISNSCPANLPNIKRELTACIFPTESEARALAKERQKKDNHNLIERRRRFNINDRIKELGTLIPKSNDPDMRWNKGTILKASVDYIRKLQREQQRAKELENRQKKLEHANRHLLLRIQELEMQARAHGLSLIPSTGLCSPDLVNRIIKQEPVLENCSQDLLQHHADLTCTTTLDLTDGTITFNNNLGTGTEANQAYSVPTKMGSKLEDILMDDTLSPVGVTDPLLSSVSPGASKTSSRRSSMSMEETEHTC
As to the kind of experiment: TRPM1 promoter luciferase signal decrease, dose response, MITF inhibitor project, cell-based, SK-MEL-5, cherry-picked, set 3 (AID 493073).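 Further: SK-MEL-5 melanoma cells with luciferase driven by the MITF target TRPM1 promoter.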 In kind it is functional.

Experiment [3] can be described thus: cytotoxicity in HEK-293T cells, dose response, cytotoxicity control for TCR NF-kB inhibitor project, luminescence, T-cell screen hits (AID 489026).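 Further: cells exposed to compound about 14 hours before the viability readout.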 In kind it is functional, cell-based.
The target in experiment [4] is Voltage-dependent T-type calcium channel subunit alpha-1H (Homo sapiens, UniProt O95180). In kind it is functional.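 Further: channel activity triggered by adding a high calcium stimulation buffer.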
In experiment [5] the target is T3, Rac GTPase-activating protein 1 (Homo sapiens, UniProt Q9H0H5).
T3 sequence (Q9H0H5 whole entry): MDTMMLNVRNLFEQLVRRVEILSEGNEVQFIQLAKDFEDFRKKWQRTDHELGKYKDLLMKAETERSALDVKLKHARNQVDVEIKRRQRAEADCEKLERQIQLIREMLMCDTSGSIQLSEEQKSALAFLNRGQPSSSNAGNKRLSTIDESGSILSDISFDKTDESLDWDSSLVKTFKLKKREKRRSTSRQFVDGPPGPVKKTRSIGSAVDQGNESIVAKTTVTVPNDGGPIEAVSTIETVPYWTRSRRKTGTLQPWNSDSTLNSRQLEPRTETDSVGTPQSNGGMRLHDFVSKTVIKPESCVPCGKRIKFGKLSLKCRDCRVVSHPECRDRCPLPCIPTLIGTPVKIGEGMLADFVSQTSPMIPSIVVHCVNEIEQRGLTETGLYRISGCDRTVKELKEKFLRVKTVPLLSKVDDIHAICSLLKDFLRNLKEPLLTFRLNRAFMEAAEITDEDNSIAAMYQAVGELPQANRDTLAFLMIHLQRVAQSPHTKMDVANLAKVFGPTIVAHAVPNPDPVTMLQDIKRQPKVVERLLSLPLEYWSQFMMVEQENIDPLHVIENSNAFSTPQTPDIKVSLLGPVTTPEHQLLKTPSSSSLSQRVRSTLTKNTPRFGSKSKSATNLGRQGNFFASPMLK
As to the kind of experiment: MgcRacGAP GTPase-activating activity inhibitors, confirmation, biochemical, ADP Hunter fluorescence, primary and confirmatory (AID 624330). The experiment is classed as functional.

Voltage-dependent T-type calcium channel subunit alpha-1H, sequence (O95180 whole entry): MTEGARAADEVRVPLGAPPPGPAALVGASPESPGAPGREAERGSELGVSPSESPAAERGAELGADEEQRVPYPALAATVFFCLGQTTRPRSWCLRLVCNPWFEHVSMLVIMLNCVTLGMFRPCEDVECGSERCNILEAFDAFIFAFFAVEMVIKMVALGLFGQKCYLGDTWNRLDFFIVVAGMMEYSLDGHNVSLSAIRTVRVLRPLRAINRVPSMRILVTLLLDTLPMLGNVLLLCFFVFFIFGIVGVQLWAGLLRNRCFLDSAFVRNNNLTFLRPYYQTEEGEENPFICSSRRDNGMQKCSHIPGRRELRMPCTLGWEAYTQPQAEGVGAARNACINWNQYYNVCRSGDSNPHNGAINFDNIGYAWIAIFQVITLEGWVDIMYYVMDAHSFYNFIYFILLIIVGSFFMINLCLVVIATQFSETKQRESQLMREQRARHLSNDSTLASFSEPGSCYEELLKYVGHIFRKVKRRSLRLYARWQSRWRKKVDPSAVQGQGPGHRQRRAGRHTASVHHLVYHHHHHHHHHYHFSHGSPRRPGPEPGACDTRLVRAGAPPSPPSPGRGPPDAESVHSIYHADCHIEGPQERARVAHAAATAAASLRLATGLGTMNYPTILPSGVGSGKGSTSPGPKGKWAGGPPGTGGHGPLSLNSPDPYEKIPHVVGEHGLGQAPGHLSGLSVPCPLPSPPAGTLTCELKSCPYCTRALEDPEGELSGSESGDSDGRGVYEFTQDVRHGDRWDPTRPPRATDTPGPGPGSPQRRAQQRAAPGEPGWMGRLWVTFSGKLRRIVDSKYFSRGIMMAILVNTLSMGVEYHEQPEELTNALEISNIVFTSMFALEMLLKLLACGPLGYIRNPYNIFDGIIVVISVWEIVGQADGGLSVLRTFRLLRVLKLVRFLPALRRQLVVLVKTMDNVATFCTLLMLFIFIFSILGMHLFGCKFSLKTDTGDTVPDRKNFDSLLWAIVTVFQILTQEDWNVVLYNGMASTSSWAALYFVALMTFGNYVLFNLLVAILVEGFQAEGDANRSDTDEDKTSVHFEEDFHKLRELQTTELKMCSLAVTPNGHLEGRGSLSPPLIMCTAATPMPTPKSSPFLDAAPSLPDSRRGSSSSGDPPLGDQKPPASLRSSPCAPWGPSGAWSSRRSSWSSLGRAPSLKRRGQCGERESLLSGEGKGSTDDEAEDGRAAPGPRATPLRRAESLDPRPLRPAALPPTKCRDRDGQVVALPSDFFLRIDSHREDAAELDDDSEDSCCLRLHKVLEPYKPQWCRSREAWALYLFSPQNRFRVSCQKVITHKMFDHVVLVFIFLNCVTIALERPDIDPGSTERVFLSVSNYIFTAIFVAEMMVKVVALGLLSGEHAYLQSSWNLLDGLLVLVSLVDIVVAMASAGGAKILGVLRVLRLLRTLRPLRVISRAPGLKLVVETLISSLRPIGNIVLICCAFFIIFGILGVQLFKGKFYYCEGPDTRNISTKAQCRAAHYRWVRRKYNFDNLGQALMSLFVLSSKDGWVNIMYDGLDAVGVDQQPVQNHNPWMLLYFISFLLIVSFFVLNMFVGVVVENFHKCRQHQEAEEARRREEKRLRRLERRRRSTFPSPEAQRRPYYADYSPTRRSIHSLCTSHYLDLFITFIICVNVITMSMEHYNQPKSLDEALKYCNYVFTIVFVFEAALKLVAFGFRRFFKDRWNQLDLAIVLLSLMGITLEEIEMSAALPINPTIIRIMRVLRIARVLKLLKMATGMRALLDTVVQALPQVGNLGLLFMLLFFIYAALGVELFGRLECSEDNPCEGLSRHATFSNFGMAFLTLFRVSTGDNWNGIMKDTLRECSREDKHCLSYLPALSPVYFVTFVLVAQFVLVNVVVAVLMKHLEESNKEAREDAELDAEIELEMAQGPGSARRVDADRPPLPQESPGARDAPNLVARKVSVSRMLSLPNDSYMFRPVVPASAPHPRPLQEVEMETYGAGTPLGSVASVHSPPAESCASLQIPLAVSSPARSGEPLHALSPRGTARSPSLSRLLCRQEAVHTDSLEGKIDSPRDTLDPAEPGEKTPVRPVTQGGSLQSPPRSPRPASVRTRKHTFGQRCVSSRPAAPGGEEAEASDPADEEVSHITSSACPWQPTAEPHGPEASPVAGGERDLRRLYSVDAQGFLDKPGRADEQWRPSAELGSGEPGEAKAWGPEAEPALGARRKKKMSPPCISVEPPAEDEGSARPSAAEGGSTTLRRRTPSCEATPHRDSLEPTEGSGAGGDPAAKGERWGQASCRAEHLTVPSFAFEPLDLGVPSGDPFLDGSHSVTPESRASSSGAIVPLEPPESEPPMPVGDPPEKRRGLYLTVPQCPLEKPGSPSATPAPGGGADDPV

As for `c1ccc2c(N3CCCCC3)nc(N3CCOCC3)nc2c1`, the EC50 in experiment [1] is 1.88 µM (active).

Take `CCCN(CCC)C1=CC(=[N+]2CCCC2)CC(C)(C)C1`: the AC50 in experiment [2] was 2.02 µM (active). For the same compound, in experiment [3], the IC50 is > 80 µM (inactive).

Consider `CC(=O)Nc1ccc(S(=O)(=O)N2CCSc3ccccc32)cc1`, for which the IC50 in experiment [3] was > 80 µM (inactive).

As to `O=C(NC1CCCCC1)N1CCN(C(c2ccccc2)c2ccccc2)CC1`, the EC50 in experiment [1] was 1.5 µM (active).

With `CCOc1ccccc1N(CC)C(=O)c1nn(C)c2c1CSc1ccccc1-2`, in experiment [1], the EC50 was 2.99 µM (active).

Consider `CCCCN(C)C(=O)C1CCN(Cc2ccc(OCc3ccccc3)cc2)CC1`, for which the EC50 in experiment [4] is 7.3 µM (active). The IC50 in experiment [5] was 204 µM (active).

One may read the EC50 as the midpoint of the concentration-response curve. By AC50 is commonly meant the concentration at which the activity in the assay is half-maximal. In general, IC50 refers to the concentration at which inhibition is half-maximal.
